Data set [1] in a line: neurotoxicity, rotorod test, mouse. Conditions: in vivo, po. Format: in vivo, mice.
Description: (§2) ^(a) Dose at which 50% of trained animals fall off the rotorod
In data set [2] the test system is trained animals fall off the rotorod. Briefly: neurotoxicity, rotorod test, mouse. Format: in vivo, mice. Conditions: oral, rotorod.
Description: as §2
Data set [3] deals with maximal metrazol seizures (MMS). Briefly: metrazol antagonism test, maximal metrazol seizures (MMS), inhibition of hind limb tonus, mouse. Format: in vivo. Conditions: read-out: Inhibition of Hind Limb Tonus ED50 (limits), MOUSE MMS. On the procedure:
(§1) The pharmacological activity of the compounds of the invention have been determined according to the following procedures. Their anticonvulsant activity was determined in the metrazol antagonism test in mice (MMS) (Soaje-Echaque E; Lim RKS, J Pharmac Exp Ther 1962, 138, 224; Desmedt LKC; Niemegeers CJE; Lewi PJ; Janssen PAJ, Arzneim-Forsch (Drug Res), 1976, 26, 1592) and the electroshock test in mice (MES)(Tulloch IF; Walter DS; Howe GM; Howe SJ, Neuropharmacology 1982, 21, 555).

Data set [4] has as its system maximal electroshock seizures (MES). Briefly: electroshock test, maximal electroshock seizures (MES), inhibition of hind limb tonus, mouse. Format: in vivo. The note with it: read-out: Inhibition of Hind Limb Tonus ED50 (limits), MOUSE MES. On the procedure: as §1
Data set [5] deals with electrically and chemically induced seizures. Briefly: anticonvulsant activity in animal tests (electrically and chemically induced seizures). Format: in vivo. The note with it: rat and mouse, oral. On the procedure: as §1
The subject of data set [6] is maximal electroshock seizures (MES). Description: electroshock test, maximal electroshock seizures (MES), inhibition of hind limb tonus, rat. Format: in vivo. The note with it: read-out: Inhibition of Hind Limb Tonus ED50 (limits), RAT MES.
Where [7] appears, read: mouse, MMS, oral, t=1 hour, limits in parentheses.
Where [8] appears, read: mouse, MES, oral, t=1 hour, limits in parentheses.
Where [9] appears, read: rat, MES, oral, t=1 hour, limits in parentheses.

Like-named read-outs stand apart in the source and are kept apart here. A value given as a limit tells only on which side of the number the result lay.

Regarding `C/N=C(\N)Nc1nnc(-c2ccccc2C(F)(F)F)s1` [Example 2, 2-(3-Methylguanidino)-5-[2-(trifluoromethyl)phenyl]-1,3,4-thiadiazole], the TD50 at 1 h in data set [1] is more than 400 mg/kg. Further, the “level of neurotoxicity (in words)” value in data set [2] was “acceptable level”. The ED50 in data set [3] (setting [7]) is 44 mg/kg; in data set [4] (setting [8]), 49 mg/kg.
The compound `Cl.N=C(N)Nc1nnc(-c2ccccc2C(F)(F)F)s1` [Example 1, 2-Guanidino-5-[2-(trifluoromethyl)phenyl]-1,3,4-thiadiazole hydrochloride] yielded a TD50 at 1 h in data set [1] of 324 mg/kg. Also, in data set [2], the “level of neurotoxicity (in words)” value is “acceptable level”. Moreover, the values for the median effective dose (ED50) in data set [3] (setting [7]), in data set [4] (setting [8]) and in data set [6] (setting [9]) were 45 mg/kg, 27 mg/kg and 22 mg/kg, respectively. For the same compound, the “anticonvulsant activity (in words)” value in data set [5] was “potent anticonvulsants blocking both electrically and chemically induced seizures”.
Consider `O=C1NC(=O)C(c2ccccc2)(c2ccccc2)N1` [phenytoin], for which the ED50 in data set [3] (setting [7]) came out at 8 mg/kg; in data set [4] (setting [8]), 8 mg/kg; in data set [6] (setting [9]), 14 mg/kg.
With `CCC1(c2ccccc2)C(=O)NC(=O)NC1=O` [phenobarbital], the ED50 in data set [3] (Mus musculus, po, 1 h) came to 4 mg/kg; in data set [4] (Mus musculus, po, 1 h) it was 12 mg/kg; in data set [6] (Rattus norvegicus, po, 1 h) it was 9 mg/kg.
Consider `NC(=O)N1c2ccccc2C=Cc2ccccc21` [carbamazepine], for which the ED50 in data set [3] (setting [7]) was 11 mg/kg; in data set [4] (setting [8]), 20 mg/kg; in data set [6] (setting [9]), 4 mg/kg.

(Values after patent US4786627A, “Thiadiazole guanidines” (Reckitt & Colman Products Limited, priority 1987, dated 1988).)
